Experimental data published in US20070155772A1, “Use of genetic polymorphisms that associate with efficacy of treatment of inflammatory disease” (priority 2003, published 2007).
Values joined by “and” are separate entries in the source; they are usually repeats but may differ in a detail not shown here. Equal entries are not always repeated.

How the values were obtained:
[1] = tested on: pediatric subjects with moderate atopic dermatitis; experiment: Phase IIIb trial, severity of pruritus score on day 43; format: in vivo, human
Description: The genetic locus was identified in a Phase IIIb trial that was designed as a head to head comparison of pimecrolimus cream 1% and tacrolimus ointment 0.03%. The six-week investigator-blinded trial of pediatric subjects with moderate atopic dermatitis explored the incidence of local application site reactions induced by the two topical macrolactams, as well as their efficacy, safety and cosmetic acceptability. Blood samples for pharmacogenetic analysis were collected from consenting participants in the clinical trial, to define a genetic basis for response to either treatment.
(§1) Statistical analysis. Investigator global assessment (IGA) scores were used as the primary marker of efficacy in the pharmacogenetic studies. IGA scores at the end of the Investigator Blinded phase of the trial (Day 43) were used as the main time-point for comparison. Last observation carried forward imputations were only required for one subject at day 43. In this case, there was no IGA score available after Day 29, and the score on this day was used in place of a day 43 IGA score. IGA scores were re-coded, as was done to assess efficacy in the trial itself. An IGA score of 0 or 1 was considered successful treatment and IGA scores of 2-5 were counted as treatment failure. The severity of pruritus was also used as a marker of efficacy. Pruritus scores were dichotomized into absence (score=0) or presence (score=1, 2 or 3) of pruritus. The fisher's exact model was employed to examine the genotype effect on each efficacy variable. All statistical analyses were done using SAS version 8.2 software.
Association between polymorphic markers and relief from pruritus. A secondary efficacy variable used in the trial was pruritus. An analysis was done to see if ASN60THR LTA and (−1031) TNF associated with this efficacy variable (assessed on day 43).

[2] = tested on: pediatric subjects with moderate atopic dermatitis; experiment: Phase IIIb trial, efficacy by Investigator global assessment (IGA) score on day 43; format: in vivo, human; settings: for Efficacy (IGA): number of patients that experienced efficacy / Efficacy (IGA): percent of patients that experienced efficacy: IGA score of 0 or 1 on day 43
Description: as §1, with “The genetic locus was identified in a Phase IIIb trial that was designed as a head to head comparison of pimecrolimus cream 1% and tacrolimus ointment 0.03%. The six-week investigator-blinded trial of pediatric subjects with moderate atopic dermatitis explored the incidence of local application site reactions induced by the two topical macrolactams, as well as their efficacy, safety and cosmetic acceptability. Blood samples for pharmacogenetic analysis were collected from consenting participants in the clinical trial, to define a genetic basis for response to either treatment. Statistical” for “Statistical”

[3] = (−1031) TNF genotype CC, day 43
[4] = (−1031) TNF genotype CT, day 43
[5] = (−1031) TNF genotype TT, day 43
[6] = ASN60THR LTA genotype AA, day 43
[7] = ASN60THR LTA genotype AC, day 43
[8] = ASN60THR LTA genotype CC, day 43
[9] = VAL63ILE CCR2 (TWT# 47987) genotype AG, day 43
[10] = VAL63ILE CCR2 (TWT# 47987) genotype GG, day 43
[11] = all (−1031) TNF genotypes, day 43
[12] = all ASN60THR LTA genotypes, day 43
[13] = all VAL63ILE CCR2 genotypes, day 43

C=CC[C@@H]1/C=C(\C)C[C@H](C)C[C@H](OC)[C@H]2O[C@@](O)(C(=O)C(=O)N3CCCC[C@H]3C(=O)O[C@H](/C(C)=C/[C@@H]3CC[C@@H](O)[C@H](OC)C3)[C@H](C)[C@@H](O)CC1=O)[C@H](C)C[C@@H]2OC [tacrolimus]
Pruritus (day 43) score 0, number of subjects ([1]; Pharmacogenomics samples): 5
Pruritus (day 43) score 0, percent of subjects ([1]; Pharmacogenomics samples): 20%
Pruritus (day 43) score 1, number of subjects ([1]; Pharmacogenomics samples): 10
Pruritus (day 43) score 1, percent of subjects ([1]; Pharmacogenomics samples): 40%
Pruritus (day 43) score 2, number of subjects ([1]; Pharmacogenomics samples): 7
Pruritus (day 43) score 2, percent of subjects ([1]; Pharmacogenomics samples): 28%
Pruritus (day 43) score 3, number of subjects ([1]; Pharmacogenomics samples): 3
Pruritus (day 43) score 3, percent of subjects ([1]; Pharmacogenomics samples): 12%
Pruritus (day 43) score 0, number of subjects ([1]; Trial subjects): 11
Pruritus (day 43) score 0, percent of subjects ([1]; Trial subjects): 16%
Pruritus (day 43) score 1, number of subjects ([1]; Trial subjects): 35
Pruritus (day 43) score 1, percent of subjects ([1]; Trial subjects): 50%
Pruritus (day 43) score 2, number of subjects ([1]; Trial subjects): 19
Pruritus (day 43) score 2, percent of subjects ([1]; Trial subjects): 27%
Pruritus (day 43) score 3, number of subjects ([1]; Trial subjects): 3
Pruritus (day 43) score 3, percent of subjects ([1]; Trial subjects): 4%
No success (IGA ≧ 2), number of individuals [2, 3]: 1
No success (IGA ≧ 2), percent [2, 3]: 50%
Success (IGA = 0 or 1), number of individuals [2, 3]: 1
Success (IGA = 0 or 1), percent [2, 3]: 50%
No success (IGA ≧ 2), number of individuals [2, 4]: 2
No success (IGA ≧ 2), percent [2, 4]: 40%
Success (IGA = 0 or 1), number of individuals [2, 4]: 3
Success (IGA = 0 or 1), percent [2, 4]: 60%
No success (IGA ≧ 2), number of individuals [2, 5]: 8
No success (IGA ≧ 2), percent [2, 5]: 47%
Success (IGA = 0 or 1), number of individuals [2, 5]: 9
Success (IGA = 0 or 1), percent [2, 5]: 53%
No success (IGA ≧ 2), number of individuals [2, 6]: 3
No success (IGA ≧ 2), percent [2, 6]: 43%
Success (IGA = 0 or 1), number of individuals [2, 6]: 4
Success (IGA = 0 or 1), percent [2, 6]: 57%
No success (IGA ≧ 2), number of individuals [2, 7]: 4
No success (IGA ≧ 2), percent [2, 7]: 40%
Success (IGA = 0 or 1), number of individuals [2, 7]: 6
Success (IGA = 0 or 1), percent [2, 7]: 60%
No success (IGA ≧ 2), number of individuals [2, 8]: 4
No success (IGA ≧ 2), percent [2, 8]: 57%
Success (IGA = 0 or 1), number of individuals [2, 8]: 3
Success (IGA = 0 or 1), percent [2, 8]: 42%
No success (IGA ≧ 2), number of individuals ([2]; LTB (TWT#128095) genotype AC): 3
No success (IGA ≧ 2), percent ([2]; LTB (TWT#128095) genotype AC): 60%
Success (IGA = 0 or 1), number of individuals ([2]; LTB (TWT#128095) genotype AC): 2
Success (IGA = 0 or 1), percent ([2]; LTB (TWT#128095) genotype AC): 40%
No success (IGA ≧ 2), number of individuals ([2]; LTB (TWT#128095) genotype CC): 8
No success (IGA ≧ 2), percent ([2]; LTB (TWT#128095) genotype CC): 44%
Success (IGA = 0 or 1), number of individuals ([2]; LTB (TWT#128095) genotype CC): 10
Success (IGA = 0 or 1), percent ([2]; LTB (TWT#128095) genotype CC): 56%
Efficacy (IGA): number of patients that experienced efficacy ([2]; Pharmacogenomics samples): 13
Efficacy (IGA): percent of patients that experienced efficacy ([2]; Pharmacogenomics samples): 52%
Efficacy (IGA): number of patients that experienced efficacy ([2]; Trial subjects): 27
Efficacy (IGA): percent of patients that experienced efficacy ([2]; Trial subjects): 40%
No success (IGA ≧ 2), number of individuals [2, 9]: 2
No success (IGA ≧ 2), percent [2, 9]: 20%
Success (IGA = 0 or 1), number of individuals [2, 9]: 8/10 and 8
Success (IGA = 0 or 1), percent [2, 9]: 80%
No success (IGA ≧ 2), number of individuals [2, 10]: 9
No success (IGA ≧ 2), percent [2, 10]: 69%
Success (IGA = 0 or 1), number of individuals [2, 10]: 4/13 and 4
Success (IGA = 0 or 1), percent [2, 10]: 31%
No success (IGA ≧ 2), number of individuals, Total [2, 11]: 11
Success (IGA = 0 or 1), number of individuals, Total [2, 11]: 13
No success (IGA ≧ 2), number of individuals, Total [2, 12]: 11
Success (IGA = 0 or 1), number of individuals, Total [2, 12]: 13
No success (IGA ≧ 2), number of individuals, Total ([2]; all LTB (TWT#128095) genotypes): 11
Success (IGA = 0 or 1), number of individuals, Total ([2]; all LTB (TWT#128095) genotypes): 12
No success (IGA ≧ 2), number of individuals, Total [2, 13]: 11
Success (IGA = 0 or 1), number of individuals, Total [2, 13]: 12
